Read-outs that look alike come from different tables or passages of the source.
Target: T1, Aβ1-42 aggregates (Homo sapiens, UniProt P05067)
T1 construct: Aβ1-42 aggregates (Peptide Institute, Inc, Osaka) were dissolved in 0.1 mol/L phosphate-buffered saline; purchased Peptide Institute, Inc., Osaka
Test: [^125I]IMPY binding inhibition experiment (Example 5)
Conditions: for binding property to Aβ1-42 aggregates: [^125I]IMPY binding inhibition, result in words
Method: Aβ1-42 aggregates (Peptide Institute, Inc, Osaka) were dissolved in 0.1 mol/L phosphate-buffered saline (hereinafter referred to as PBS) to 0.25 mg/mL and incubated at 37° C. for 42 hours to prepare an Aβ1-42 aggregate PBS solution. This was further diluted 1:100 with PBS to 2.5 μg/mL and used for an assay.
The mixture was filtered through Whatman (R) GF/B filter, and a γ counter was used to measure the radioactivity of the filter. The measured radioactivity values were used to prepare an inhibition curve to calculate IC50. In addition, the following mathematical expression (1):
was used to calculate an inhibition constant (Ki).

[1] = inhibition of [^125I]IMPY binding to Aβ1-42 aggregates

T1 sequence (P05067 672-713 limits assumed): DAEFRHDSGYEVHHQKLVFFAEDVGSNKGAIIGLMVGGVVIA

SMILES | Ki [nM] | binding property to Aβ1-42 aggregates | Ki [1] [nM]
CN(C)c1ccc(-c2cnc3cc(OCCF)ccc3n2)cc1 [Compound D3, 4-(6-(2-Fluoroethoxy)quinoxalin-2-yl)-N,N-dimethylaniline] | 0.947 | sufficiently high binding property | 
Nc1ccc(-c2cnc3ccc(OCCF)cc3n2)cc1 [Compound E1, 4-(7-(2-Fluoroethoxy)quinoxalin-2-yl)aniline] |  | not each confirmed to have a sufficient binding property | 1180
CNc1ccc(-c2cnc3ccc(OCCF)cc3n2)cc1 [Compound E2, 4-(7-(2-Fluoroethoxy)quinoxalin-2-yl)-N-methylaniline] |  | not each confirmed to have a sufficient binding property | 758
CN(C)c1ccc(-c2cnc3ccc(OCCF)cc3n2)cc1 [Compound E3, 4-(7-(2-Fluoroethoxy)quinoxalin-2-yl)-N,N-dimethylaniline] |  | sufficiently high binding property | 111

Reference: patent publication US20140088306A1, “RADIOACTIVE FLUORINE-LABELED QUINOXALINE COMPOUND” (Nihon Medi-Physics Co., Ltd., priority 2012, published 2014)
